# Columns and labels:
# human 5-HT1A receptor = target: T1, human 5-HT1A receptor (Homo sapiens, UniProt P08908); test: GPCR radioligand binding assay, [3H]-8-OH-DPAT displacement, HEK293 membranes; settings: for %inh 5-HT1A average: average of exp_1 and exp_2; for %inh 5-HT1A corrected*: average, values below 0 and above 100% were set as 0 and 100; for %inh 5-HT1A exp_1: replicate exp_1; for %inh 5-HT1A exp_2: replicate exp_2; for 5-HT1A % Inhibition by plate position: 10 µM
# T1 construct: expressed in transfected cells
# T1 sequence (P08908 1-422): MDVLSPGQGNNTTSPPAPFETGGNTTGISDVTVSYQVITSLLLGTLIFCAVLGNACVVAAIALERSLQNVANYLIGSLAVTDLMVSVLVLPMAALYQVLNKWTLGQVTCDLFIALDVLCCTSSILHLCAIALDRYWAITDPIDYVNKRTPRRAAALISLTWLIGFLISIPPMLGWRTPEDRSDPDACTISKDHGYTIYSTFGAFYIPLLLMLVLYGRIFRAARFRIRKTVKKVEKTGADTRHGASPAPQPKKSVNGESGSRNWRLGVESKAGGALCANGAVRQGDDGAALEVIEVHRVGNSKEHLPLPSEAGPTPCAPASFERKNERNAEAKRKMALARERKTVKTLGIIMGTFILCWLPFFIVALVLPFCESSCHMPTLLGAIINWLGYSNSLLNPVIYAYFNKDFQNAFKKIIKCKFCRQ
# human 5-HT6 receptor = target: T2, human 5-HT6 receptor (Homo sapiens, UniProt P50406); test: GPCR radioligand binding assay, [3H]-LSD displacement, HEK293 membranes; settings: for 5-HT6 % Inhibition by plate position: 10 µM; for %inh 5-HT6 average: average of exp_1 and exp_2; for %inh 5-HT6 corrected*: average, values below 0 and above 100% were set as 0 and 100; for %inh 5-HT6 exp_1: replicate exp_1; for %inh 5-HT6 exp_2: replicate exp_2
# T2 construct: expressed in transfected cells
# T2 sequence (P50406 whole entry): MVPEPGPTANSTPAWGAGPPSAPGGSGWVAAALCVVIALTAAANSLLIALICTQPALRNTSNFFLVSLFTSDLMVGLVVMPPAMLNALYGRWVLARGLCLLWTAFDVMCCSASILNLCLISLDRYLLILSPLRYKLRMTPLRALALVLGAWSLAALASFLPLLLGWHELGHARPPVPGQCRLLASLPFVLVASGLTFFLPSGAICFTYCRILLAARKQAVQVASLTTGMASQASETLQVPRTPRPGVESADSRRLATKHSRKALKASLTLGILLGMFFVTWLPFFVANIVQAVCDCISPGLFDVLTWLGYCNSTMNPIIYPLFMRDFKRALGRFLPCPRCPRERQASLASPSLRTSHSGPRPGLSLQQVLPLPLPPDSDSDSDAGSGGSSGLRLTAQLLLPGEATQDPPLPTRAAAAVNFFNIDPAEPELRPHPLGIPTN
# human 5-HT7b receptor = target: T3, human 5-HT7b receptor (Homo sapiens, UniProt P34969); test: GPCR radioligand binding assay, [3H]-5-CT displacement, HEK293 membranes; settings: for 5-HT7 % Inhibition by plate position: 10 µM; for %inh 5-HT7 average: average of exp_1 and exp_2; for %inh 5-HT7 exp_1: replicate exp_1; for %inh 5-HT7 exp_2: replicate exp_2
# T3 construct: expressed in transfected cells
# T3 sequence (P34969 1-432): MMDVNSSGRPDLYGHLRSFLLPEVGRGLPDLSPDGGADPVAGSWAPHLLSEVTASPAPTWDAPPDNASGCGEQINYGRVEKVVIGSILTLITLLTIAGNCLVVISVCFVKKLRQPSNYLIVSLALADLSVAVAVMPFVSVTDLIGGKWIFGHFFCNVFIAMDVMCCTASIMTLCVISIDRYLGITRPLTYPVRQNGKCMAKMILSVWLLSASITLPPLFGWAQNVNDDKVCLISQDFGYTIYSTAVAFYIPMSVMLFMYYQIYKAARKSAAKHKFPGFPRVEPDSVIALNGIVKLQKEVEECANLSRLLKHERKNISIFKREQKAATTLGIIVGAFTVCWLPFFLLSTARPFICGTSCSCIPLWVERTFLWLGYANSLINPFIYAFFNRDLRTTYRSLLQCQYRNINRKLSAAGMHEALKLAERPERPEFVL
Structure (SMILES),%inh 5-HT1A average (human 5-HT1A receptor) [%],%inh 5-HT1A corrected* (human 5-HT1A receptor) [%],%inh 5-HT1A exp_1 (human 5-HT1A receptor) [%],%inh 5-HT1A exp_2 (human 5-HT1A receptor) [%],5-HT6 % Inhibition by plate position (human 5-HT6 receptor) [%],%inh 5-HT6 average (human 5-HT6 receptor) [%],%inh 5-HT6 corrected* (human 5-HT6 receptor) [%],%inh 5-HT6 exp_1 (human 5-HT6 receptor) [%],%inh 5-HT6 exp_2 (human 5-HT6 receptor) [%],5-HT7 % Inhibition by plate position (human 5-HT7b receptor) [%],%inh 5-HT7 average (human 5-HT7b receptor) [%],%inh 5-HT7 exp_1 (human 5-HT7b receptor) [%],%inh 5-HT7 exp_2 (human 5-HT7b receptor) [%],5-HT1A % Inhibition by plate position (human 5-HT1A receptor) [%]
c1ccc2oc(C3CCCNC3)nc2c1 (stereo not drawn) [D10],78,78,77,80,25,25,25,22,28,0,-0.305,-4,3.22,
O=C1CCN(c2ccccn2)CC1 [G8],-7,,4,-18,7,7,7,0,15,29,,34,24,0
CC(=O)c1ccc2c(c1)CNCC2 [C8],-13,,-22,-3.26,2.55,2.55,2.55,6,-1,4,,8,0,0
Oc1ccc(-n2cncn2)cc1 [H5],-1.29,,-9,6,36,36,36,39,32,25,,29,21,0
Cc1ccc(C)n1Cc1ccccc1Cl [D6],6.37,6.37,4.33,8,26,26,26,30,23,0,-5.55,-2.55,-8.54,
CCCN1C(=O)CC(=O)NC1=S [D5],-8.49,,-9,-8,49,49,49,57,41,10,,13,6,0
c1ccc(-c2ccncc2)cc1 [C2],-6,,-11,0,36,36,36,32,40,6,,14,-2,0
Cc1nccn1Cc1cccc(C#N)c1 [F8],10,10,7,13,41,41,41,40,42,9,,14,3.57,
CC1(C)OC(=O)c2cc(Br)c(O)cc2O1 [C6],-0.191,,-7.5,7,56,56,56,67,45,0.891,,1.78,0,0
N#CC1CCS(=O)(=O)C1 (stereo not drawn) [F2],-0.934,,12,-14,22,22,22,22,22,20,,21,19,0
O=c1[nH]c2c(s1)CCC2 [C10],-4,,2.56,-11,42,42,42,44,39,0.592,,-6.56,8,0
Clc1ccc2nnnn2n1 [E6],3.55,3.55,3.18,4,35,35,35,38,31,0,-13,-5,-20,
O=C(c1ccncc1)N1CCNCC1 [E2],3.69,3.69,13,-6,24,24,24,15,33,3.34,,1.81,5,
Fc1ccc2c(C3CCNCC3)c[nH]c2c1 [H4],81,81,87,75,90,90,90,81,98,78,,78,78,
COc1ccccc1N1CCNCC1 [A10],102,,101,103,69,69,69,80,58,72,,67,76,100

# Source: article PMC8159961, “Exploring protein hotspots by optimized fragment pharmacophores” (Nature Communications, 2021)
